Where no end group is shown, it is not given here.
The substances below were run on EpCAM (assay: Spot phage ELISA, EpCAM). Details: spot phage ELISA signal-to-noise on EpCAM.
Type: binding, human
“CKQDSDCLLVCLGPNGFCG (disulfide (positions not given here)) [EpCAM EET I-II 28]” showed a S/N of 18. “GCFRHYVRCKQDSDCLAGCVCWFDWSCG (disulfide (positions not given here)) [EpCAM EET I-II 13]” was tested, and the S/N was 20.8. Substance “GCHRWGILCKQDSDCLAGCVCWQQGQCG (disulfide (positions not given here)) [EpCAM EET I-II 35]” has a S/N of 15. “GCIKNNLRCKQDSDCLAGCVCWYDAACG (disulfide (positions not given here)) [EpCAM EET I-II 32]” showed a S/N of 16.9. For “GCKNDKIRCKQDSDCLAGCVCWEDPSCG (disulfide (positions not given here)) [EpCAM EET I-II 22]”, the S/N was 18.9. Work on “GCMQWYIWCKQDSDCLAGCLYRSLPLD (disulfide (positions not given here)) [EpCAM EET I-II 9]” yielded a S/N of 21.9. In the case of “GCPRILMRCKQDSDCEAICG (disulfide (positions not given here)) [EpCAM EET I-II 8]”, the S/N is reported as 21.9. Substance “GCPRILMRCKQDSDCHAFCG (disulfide (positions not given here)) [EpCAM EET I-II 30]” has a S/N of 17.5. “GCPRILMRCKQDSDCHPVCG (disulfide (positions not given here)) [EpCAM EET I-II 20]” was tested, and the S/N was 19.5. For “GCPRILMRCKQDSDCHWFCG (disulfide (positions not given here)) [EpCAM EET I-II 15]”, the S/N was 20.7. “GCPRILMRCKQDSDCHWVCG (disulfide (positions not given here)) [EpCAM EET I-II 39]” gave a S/N of 6.6. For “GCPRILMRCKQDSDCLAGCGLSSGLVVW (disulfide (positions not given here)) [EpCAM EET I-II 1]”, the S/N was 24. For “GCPRILMRCKQDSDCLAGCVCENGIMCG (disulfide (positions not given here)) [EpCAM EET I-II 25]”, the S/N was 18.6. For “GCPRILMRCKQDSDCLAGCVCPGNILCG (disulfide (positions not given here)) [EpCAM EET I-II 29]”, the S/N was 17.9. “GCPRILMRCKQDSDCLAGCVCWPGWPCG (disulfide (positions not given here)) [EpCAM EET I-II 7]” was tested, and the S/N was 22. In the case of “GCPRILMRCKQDSDCLAGCVCWPGWPCG (disulfide (positions not given here)) [EpCAM EET I-II 19]”, the S/N is reported as 19.6. For “GCPRILMRCKQDSDCLAGCVLNGLVSWYT (disulfide (positions not given here)) [EpCAM EET I-II 38]”, the S/N was 7.1. Substance “GCPRILMRCKQDSDCLALCCNERNICG (disulfide (positions not given here)) [EpCAM EET I-II 18]” has a S/N of 19.7. “GCPRILMRCKQDSDCLCGCV (disulfide (positions not given here)) [EpCAM EET I-II 11]” was tested, and the S/N was 21.4. Substance “GCPRILMRCKQDSDCLPVCG (disulfide (positions not given here)) [EpCAM EET I-II 17]” has a S/N of 19.8. Work on “GCPRILMRCKQDSDCMPVCG (disulfide (positions not given here)) [EpCAM EET I-II 4]” yielded a S/N of 23. “GCPRILMRCKQDSDCQAFCG (disulfide (positions not given here)) [EpCAM EET I-II 23]” showed a S/N of 18.7. With “GCPRILMRCKQDSDCQAVCG (disulfide (positions not given here)) [EpCAM EET I-II 27]” the S/N was 18.1. “GCPRILMRCKQDSDCQLVCLFPGLLVG (disulfide (positions not given here)) [EpCAM EET I-II 36]” was tested, and the S/N was 14.3. Work on “GCPRILMRCKQDSDCQPFCG (disulfide (positions not given here)) [EpCAM EET I-II 6]” yielded a S/N of 22.2. “GCPRILMRCKQDSDCQPICG (disulfide (positions not given here)) [EpCAM EET I-II 21]” gave a S/N of 19.1. With “GCPRILMRCKQDSDCQPVCG (disulfide (positions not given here)) [EpCAM EET I-II 5]” the S/N was 22.8. With “GCPRILMRCKQDSDCQPVCG (disulfide (positions not given here)) [EpCAM EET I-II 10]” the S/N was 21.9. “GCPRILMRCKQDSDCQWFCG (disulfide (positions not given here)) [EpCAM EET I-II 12]” was tested, and the S/N was 20.9. Substance “GCPRILMRCKQDSDCRPVCG (disulfide (positions not given here)) [EpCAM EET I-II 34]” has a S/N of 15.7. For “GCPRILMRCKQDSDLSSWLCLCCYDSVC (disulfide (positions not given here)) [EpCAM EET I-II 37]”, the S/N was 9.5. Substance “GCPRILMRCKQDSELSSWLCLCCSGLVC (disulfide (positions not given here)) [EpCAM EET I-II 14]” has a S/N of 20.8. With “GCPRILMRCKQDSELSSWLCLCCSGSLC (disulfide (positions not given here)) [EpCAM EET I-II 26]” the S/N was 18.3. “GCPRILMRCKQDSGLSSWLCLCCSASVC (disulfide (positions not given here)) [EpCAM EET I-II 16]” gave a S/N of 20.6. With “GCPRSHVRVFFSCKQDSDCLAGCVCFQVVC (disulfide (positions not given here)) [EpCAM EET I-II 31]” the S/N was 17.4. “GCRARPLVCKQDSDCLAGPNGFCG (disulfide (positions not given here)) [EpCAM EET I-II 24]” gave a S/N of 18.6. “GCRNTMVRCKQDSDCLAGCVCYFDPSCG (disulfide (positions not given here)) [EpCAM EET I-II 33]” gave a S/N of 15.8. Work on “GCRRMGVRCKQDSDCLAGCVCWHDPQCG (disulfide (positions not given here)) [EpCAM EET I-II 3]” yielded a S/N of 23. “GCSFPLIRCKQDSDCQLVVLWSKRFCG (disulfide (positions not given here)) [EpCAM EET I-II 2]” showed a S/N of 23.6. “GPTQSHYGQCGGAGYVGTIKCSGTTCQYVLKPQSQCLPGAS (disulfide (positions not given here)) [EpCAM CBD 54]” gave a S/N of 9.4. For “GPTQSHYGQCGGDGYHGAIHCSGTTCQYVMMNRSQCLPGAS (disulfide (positions not given here)) [EpCAM CBD 59]”, the S/N was 8.9. “GPTQSHYGQCGGDGYTGMIRCSGTTCQFVAKKHSQCLPGAS (disulfide (positions not given here)) [EpCAM CBD 40]” gave a S/N of 11.8. With “GPTQSHYGQCGGDGYVGAILCSGTTCQHVSVFPSQCLPGAS (disulfide (positions not given here)) [EpCAM CBD 56]” the S/N was 9.3. “GPTQSHYGQCGGEGYKGAIVCSGTTCQQTKLQGSQCLPGAS (disulfide (positions not given here)) [EpCAM CBD 75]” gave a S/N of 7.7. “GPTQSHYGQCGGEGYLGALRCSGTTCQYTQIKPSQCLPGAS (disulfide (positions not given here)) [EpCAM CBD 8]” gave a S/N of 21.8. “GPTQSHYGQCGGFGYHGYIVCSGTTCQSRQYDNSQCLPGAS (disulfide (positions not given here)) [EpCAM CBD 21]” was tested, and the S/N was 17.2. Work on “GPTQSHYGQCGGFGYIGVVRCSGTTCQPHQYFRSQCLPGAS (disulfide (positions not given here)) [EpCAM CBD 32]” yielded a S/N of 15.1. Work on “GPTQSHYGQCGGFGYMGVMVCSGTTCQWIIRPFSQCLPGAS (disulfide (positions not given here)) [EpCAM CBD 25]” yielded a S/N of 16.9. Work on “GPTQSHYGQCGGFGYQGAVVCSGTTCQFTHLGHSQCLPGAS (disulfide (positions not given here)) [EpCAM CBD 88]” yielded a S/N of 5.9. “GPTQSHYGQCGGFGYTGAIGCSGTTCQHVKYMRSQCLPGAS (disulfide (positions not given here)) [EpCAM CBD 7]” gave a S/N of 22.6. Work on “GPTQSHYGQCGGGGYHGIICSGTTCQSREVVRSQCLPGAS (disulfide (positions not given here)) [EpCAM CBD 84]” yielded a S/N of 6.7. “GPTQSHYGQCGGGGYIGAMPCSGTTCQPVRIP*SQCLPGAS (disulfide) [EpCAM CBD 26]” gave a S/N of 16.6. With “GPTQSHYGQCGGGGYPGAIMCSGTTCQFVMAHKSQCLPGAS (disulfide (positions not given here)) [EpCAM CBD 77]” the S/N was 7.5. “GPTQSHYGQCGGGGYRGVVCSGTTCQPFFVFGSQCLPGAS (disulfide (positions not given here)) [EpCAM CBD 22]” was tested, and the S/N was 17.1. “GPTQSHYGQCGGGGYYGAISCSGTTCQPVRLIRSQCLPGAS (disulfide (positions not given here)) [EpCAM CBD 37]” was tested, and the S/N was 13.0. “GPTQSHYGQCGGHGYHGWAICSGTTCQERIRHLSQCLPGAS (disulfide (positions not given here)) [EpCAM CBD 41]” showed a S/N of 11.6. Substance “GPTQSHYGQCGGHGYMGSIKCSGTTCQYVEIVPSQCLPGAS (disulfide (positions not given here)) [EpCAM CBD 66]” has a S/N of 8.6. With “GPTQSHYGQCGGHGYQGIMRCSGTTCQQVYMRSSQCLPGAS (disulfide (positions not given here)) [EpCAM CBD 34]” the S/N was 15.0. In the case of “GPTQSHYGQCGGHGYVGMIACSGTTCQYLQKVPSQCLPGAS (disulfide (positions not given here)) [EpCAM CBD 13]”, the S/N is reported as 19.5. “GPTQSHYGQCGGIGYMGAIQCSGTTCQPIFLRNSQCLPGAS (disulfide (positions not given here)) [EpCAM CBD 6]” showed a S/N of 22.6. “GPTQSHYGQCGGKGYFGAIVCSGTTCQSTQKYASQCLPGAS (disulfide (positions not given here)) [EpCAM CBD 62]” showed a S/N of 8.8. With “GPTQSHYGQCGGKGYFGIRCSGTTCQMVTYKPSQCLPGAS (disulfide (positions not given here)) [EpCAM CBD 33]” the S/N was 15.1. Work on “GPTQSHYGQCGGKGYHGFIRCSGTTCQVVYPEKSQCLPGAS (disulfide (positions not given here)) [EpCAM CBD 58]” yielded a S/N of 9.2. In the case of “GPTQSHYGQCGGKGYNGYFVCSGTTCQWKAKTDSQCLPGAS (disulfide (positions not given here)) [EpCAM CBD 15]”, the S/N is reported as 19.3. With “GPTQSHYGQCGGKGYPGAIVCSGTTCQLVQSWRSQCLPGAS (disulfide (positions not given here)) [EpCAM CBD 63]” the S/N was 8.7.
